These results are taken from article PMC5736767, “A Comparison of Drug Transport in Pulmonary Absorption Models: Isolated Perfused rat Lungs, Respiratory Epithelial Cell Lines and Primary Cell Culture” (Pharmaceutical Research, 2017).

For data set [1] the following is noted: Table I panel of test compounds; source not stated; cited from earlier work.
Data set [2] is described as follows: in vitro. To be noted: male, Wistar, rat, pH 7.4. As for the experimental part: (§1) Eight-week old male Wistar rats were obtained from Harlan UK Ltd. (Oxon, Oxfordshire). They were fed with a SDS RM1(E) maintenance diet (Special Diets Services Ltd., Essex). They were maintained at 20–21°C and 45–60% humidity with a 12 h light/dark cycle. All procedures performed on these animals were in accordance with regulations and established guidelines and were reviewed and approved by an Institutional Animal Care and Use Committee or through an ethical review process.
(§2) Rats were sacrificed with a lethal injection of pentobarbital (130 mg/kg body weight). As soon as they were unconscious, rats were secured in a supine position on a board inclined at approximately 45°. A midline incision was made from the neck to the abdomen using a scalpel blade and the rat was exsanguinated by severing the main abdominal vessels. The trachea was exposed and carefully pierced through one wall with a 21 G needle. A 3 cm long cannula made of a polyethylene tubing (PolyE 240, Harvard Apparatus Ltd., Edenbridge, UK) mounted on a blunt 21 G needle was introduced into the trachea. This was securely tied with two suture threads (Silk black braid USP size 4.0, Harvard apparatus Ltd) and a 25 mm Dieffenbach’s bulldog artery clip (Scientific Laboratory Supplies Ltd., Nottingham, UK). The diaphragm was cut open, 0.5 mL of air was administered to the lungs to partly re-inflate them and the rib cage was laterally incised with scissors taking care not to damage the lung tissue.
(§3) After the thymus was removed, the heart was twisted slightly to expose the pulmonary artery and then stretched down using a Halstead’s artery clamp (Scientific Laboratory Supplies). An incision was made and the pulmonary artery was cannulated using a cannula similar to the tracheal one. This was secured with a micro aneurysm clip (Harvard apparatus Ltd). Lungs were perfused using a single pass constant flow rate of 8 mL/min. […] The pericardium was dissected free to allow free efflux of the perfusate and lungs were inflated manually with 1.5 mL air using a 10 mL syringe connected to the intratracheal cannula. As soon as the tissue blanched, the lungs were removed carefully from the chest cavity while maintaining the perfusion and a semi micro Rexaloy clamp (Fisher Scientific, Loughborough, UK) was used to suspend the lungs vertically above a funnel and beaker.
(§4) After isolation, the lungs were allowed to stabilize for 1–2 min. The syringe attached to the intratracheal cannula was then disconnected and 100 μL of the test solutions were instilled into the airways using a Hamilton microsyringe. Lungs were re-inflated with 1.5 mL of air and sampling was performed by collecting the effluent solution dripping from the left atrium at different time intervals for 90 min. Lung viability was assessed by visual inspection for any sign of oedema as well as by the profile of mannitol airway to perfusate transfer.
(§5) The cumulative percentage of drug transferred from the airways to the perfusate in 90 min was calculated as the fraction of the administered dose recovered in the perfusate. […] The apparent first-order absorption rate constant (KaIPL) was calculated as follows: KaIPL=ln2/t1/2abs
(§6) Absorption data were collected using 4 or 5 IPL preparations.

The test system of data set [3] is isolated perfused rat lungs. Briefly: in vitro. As for the experimental part:
as §1, §2, §3, §4, §5, §6

Data set [4] in a line: Absorptive (A to B) permeability in Calu-3 cell layers. To be noted: human.
In the next data set the test system is rat lungs. To be noted: apparent first-order pulmonary absorption rate constant in rats in vivo, cited from earlier work.
A short description of data set [5]: Absorptive (A to B) permeability in normal human bronchial epithelial (NHBE) cell layers. Format: in vitro ADME. To be noted: human, apical to basolateral, 10 μM, pH 7.4, 2 h, mean ± SD (n = 3, n = 18 for mannitol). As for the experimental part:
(§7) NHBE were cultured in a cell culture flask using the BEGM bullet kit provided by the supplier until reaching 70–80% confluence. […] After 24 h, cells were cultured at an air interface. Cell layers were used for transport studies after 14 d in culture.

For another data set, the system named is NHBE cell layers. The data set is described as above. Type of data set: in vitro ADME. Here is the method: as §7
Data set [6] is described as follows: Absorptive (A to B) permeability in 16HBE14o- cell layers. As to conditions: human, pH 7.4.
Data set [7] is described as follows: in vitro. As to conditions: human, pH 7.4.
A further data set relates to 16HBE14o- cell layers. As to conditions: pH 7.4.
Another data set deals with Calu-3 cell layers. Briefly: Absorptive (A to B) permeability in Calu-3 cell layers. As to conditions: Calu-3, apical to basolateral, 10 μM, pH 7.4, 2 h; mean ± SEM (n = 6, n = 36 for mannitol).
Setting [8] is: apparent first-order absorption rate constant = ln2/t1/2 abs, intratracheal instillation 100 μL, mean ± SD.
Setting [9] is: male, Wistar, rat, 90 min, pH 7.4.
Setting [10] is: pH 7.4, Papp, Calu-3, apical to basolateral, 10 μM, pH 7.4, 2 h, mean ± SEM (n = 6, n = 36 for mannitol).

Where two headings read alike, the source gives them in different places.

For `COc1ccc(CC(C)NCC(O)c2ccc(O)c(NC=O)c2)cc1` (centres unmarked) [Formoterol], the “Log P” value in data set [1] was 1.1. Further, in “in vitro [2]” (100 μL), the half-life was 30 ± 2 min. The KaIPL in data set [3] (setting [8]) amounted to 0.023 ± 0.002 min⁻¹. Besides, the “% transferred to the perfusate in 90 min” value in data set [3] (cumulative fraction of administered dose recovered in perfusate at 90 min, mean ± SD) stood at 46 ± 7%. The Papp at 2 h, 10 μM in data set [4] (pH 7.4) amounted to 6.4 ± 0.3 ×10⁻⁶ cm/s. In the data set on rat lungs (ref [22]), the Ka in vivo is 0.19 ^(1) min^−1.
For the compound `CN(C)CCCN1c2ccccc2CCc2ccccc21` [Imipramine], the KaIPL in data set [3] (setting [8]) was 0.071 ± 0.021 min⁻¹. The “% transferred to the perfusate in 90 min” value in [3] (setting [9]) is 58 ± 9%. In the data set with rat lungs (ref [22]), the Ka in vivo is listed as 0.53 ^(1) min^−1.
As for `OC[C@@H](O)[C@@H](O)[C@H](O)[C@H](O)CO` [Mannitol], in “in vitro [2]”, the half-life was determined as 25 ± 5 min. In data set [3] (setting [9]), the “% transferred to the perfusate in 90 min” value was 51 ± 4%. The same compound registered a KaIPL in data set [3] (male, Wistar, rat, pH 7.4) of 0.029 ± 0.005 min⁻¹. The Papp at 2 h, 10 μM came to 1.6 ± 0.5 ×10⁻⁶ cm/s in [5]; 0.5 ± 0.1 ×10⁻⁶ cm/s in [4] (setting [10]); 0.48 ± 0.06 ×10⁻⁶ cm/s in [4] (pH 7.4, Papp, Calu-3, as stated in text); 3.7 ± 0.5 ×10⁻⁶ cm/s in data set [6]. Further, the Papp with NHBE cell layers is listed as 1.6 ± 0.5 x 10^−6, cm s^−1. Moreover, the Ka in vivo in the data set on rat lungs (ref [24]) is on record as 0.011 ^(3) min^−1.
In the case of `COCCc1ccc(OCC(O)CNC(C)C)cc1` (centres unmarked) [Metoprolol], the half-life in “in vitro [2]” is 3 ± 1 min. The “% transferred to the perfusate in 90 min” value in [3] (setting [9]) came to 65 ± 4%. For the same compound, the KaIPL in [3] (male, Wistar, rat, pH 7.4) worked out at 0.260 ± 0.050 min⁻¹. Further, the apparent permeability (Papp) at 2 h, 10 μM turned out to be 11.3 ± 0.7 ×10⁻⁶ cm/s in [5], 10.3 ×10⁻⁶ cm/s in data set [4] (setting [10]) and 24.5 ± 2.5 ×10⁻⁶ cm/s in the data set “in vitro [7]”.
Regarding `CC(C)NCC(O)COc1cccc2ccccc12` (centres unmarked) [Propranolol], in the data set “in vitro [2]” (100 μL), the half-life is 7 ± 1 min. Further, the “% transferred to the perfusate in 90 min” value in data set [3] (setting [9]) came out at 47 ± 9%. The compound also gave a KaIPL in [3] (male, Wistar, rat, pH 7.4) of 0.098 ± 0.016 min⁻¹. The results for the apparent permeability (Papp) at 2 h, 10 μM (in data set [5]; in data set [4] (setting [10]); in the data set “in vitro [7]”) were 16.8 ± 3 ×10⁻⁶ cm/s, 7 ± 0.4 ×10⁻⁶ cm/s and 17.3 ± 0.8 ×10⁻⁶ cm/s, respectively.
On to `CC(C)(C)NCC(O)c1cc(O)cc(O)c1` (centres unmarked) [Terbutaline], for which, in data set [1], the lipophilicity (Log P) is given as 0.1. In the data set “in vitro [2]”, this compound displayed a half-life of 19 ± 3 min. The “% transferred to the perfusate in 90 min” value in [3] (setting [9]) came to 52 ± 12%. The same compound had a KaIPL in [3] (male, Wistar, rat, pH 7.4) of 0.037 ± 0.006 min⁻¹. The Papp at 2 h, 10 μM in data set [5] stood at 13.8 ± 0.8 ×10⁻⁶ cm/s; in data set [4] (setting [10]) it was 7.3 ± 0.4 ×10⁻⁶ cm/s; in “in vitro [7]”, 19.3 ± 2 ×10⁻⁶ cm/s. The Ka in vivo in the data set on rat lungs (ref [22]) was 0.06 ^(1) min^−1.
Dextran 10 K: the Papp was 1 ± 0.1 ×10⁻⁶ cm/s with 16HBE14o- cell layers; 0.7 ± 0.1 10^−6 cm/s in the data set with NHBE cell layers (apical to basolateral, 10 μM, pH 7.4, 2 h, mean ± SD (n = 3, n = 18 for mannitol)); 0.2 ± 0.0 10^−6 cm/s in the data set with Calu-3 cell layers. This compound also yielded a KaIPL in [3] of 0.017 ± 0.002 min⁻¹. Also, in data set [3] (rat), the t1/2 abs is listed as 41 ± 6 min. In addition, the Ka in vivo in the data set with rat lungs (ref [23]) was 0.00007 ^(2) min^−1.

What is called Log P is a log measure of how a compound divides between an organic and an aqueous phase. Broadly, the half-life is the time needed for the level to fall by half in the phase considered. A high value points to slow loss. The term Papp denotes a coefficient for how fast a substance crosses the barrier. A high value points to ready permeation.
